Here are results for eight compounds from ChEMBL document CHEMBL1126089, “2-Alkynyl derivatives of adenosine and adenosine-5'-N-ethyluronamide as selective agonists at A2 adenosine receptors” (J Med Chem, 1992).

As usually defined, the IC50 is the midpoint of a concentration-inhibition curve. Low readings indicate greater potency, high ones weaker potency. The EC50 is the concentration giving half of the maximal effect. By Ki is commonly meant the equilibrium dissociation constant of an inhibitor or competing ligand from its target. As usually defined, the Emax is the maximal effect, on the per cent scale that the assay sets.

The target in assay [1] is T1, Adenosine receptor A1 (Rattus norvegicus, UniProt P25099).
T1 sequence (P25099 whole entry): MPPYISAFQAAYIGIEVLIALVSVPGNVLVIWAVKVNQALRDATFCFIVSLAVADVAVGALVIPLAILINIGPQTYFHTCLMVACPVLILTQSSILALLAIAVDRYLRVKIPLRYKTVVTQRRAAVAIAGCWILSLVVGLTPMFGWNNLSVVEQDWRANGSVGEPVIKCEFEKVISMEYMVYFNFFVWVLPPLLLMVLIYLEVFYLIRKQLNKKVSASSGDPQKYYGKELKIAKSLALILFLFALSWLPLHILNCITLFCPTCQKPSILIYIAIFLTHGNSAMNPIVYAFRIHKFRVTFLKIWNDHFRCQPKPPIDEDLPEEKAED
Briefly: Inhibition of adenylate cyclase via Adenosine A1 receptor in rat fat cell membranes. In kind it is functional, Membrane.

Assay [2] is described as follows: Selectivity as ratio of IC50 for A1 adenosine receptor compared to EC50 for A2 adenosine receptor.
In assay [3] the target is T2, Adenosine A2 receptor (Homo sapiens, UniProt P29275+P29274). Briefly: Maximal NECA stimulation of adenylate cyclase via A2 receptors in human platelet membranes. In kind it is cell membranes.
Assay [4] concerns the target T3, Adenosine A2 receptor (Rattus norvegicus, UniProt P29276+P30543). The experiment in a line: Binding affinity against A2 adenosine receptors from rat striatal membranes with 50 nM CPA using [3H]NECA.
The target in assay [5] is T2, Adenosine A2 receptor. Briefly: Maximal NECA stimulation of adenylate cyclase via Adenosine A2 receptor in human platelet membranes. Format: cell membranes.
Assay [6] concerns the target T1, Adenosine receptor A1. The experiment in a line: Binding affinity against high affinity component of Adenosine A1 receptor from rat brain membranes using [3H]-DPCPX. Format: cell membranes, Membrane.
Assay [7] has as its target T1, Adenosine receptor A1. The experiment in a line: Binding affinity against Adenosine A1 receptor from rat brain membranes using [3H]CCPA.
Assay [8] addresses T1, Adenosine receptor A1. The experiment in a line: Binding affinity against low affinity component of Adenosine A1 receptor from rat brain membranes using [3H]DPCPX. In kind it is cell membranes, Membrane.
The target in assay [9] is T2, Adenosine A2 receptor. The experiment in a line: Agonistic activity at Adenosine A2 receptor. Format: functional.
Assay [10] has as its target T3, Adenosine A2 receptor. Briefly: Binding affinity against Adenosine A2 receptor from rat striatal membrane with 50 nM CPA using [3H]NECA.
Assay [11] concerns the target T2, Adenosine A2 receptor. The experiment in a line: Binding affinity against A2 adenosine receptors from human platelet membranes using [3H]NECA.
The target in assay [12] is Adenosine A2 receptor (Rattus norvegicus) (UniProt P29276+P30543). The experiment in a line: Binding affinity against Adenosine A2 receptor from rat striatal membranes with 50 nM CPA using [3H]NECA.
The target in assay [13] is Adenosine A2a receptor (Rattus norvegicus) (UniProt P30543). Briefly: Binding affinity against Adenosine A2 receptor from rat striatal membranes with 50 nM CPA using [3H]-NECA.
Sequence of Adenosine A2a receptor (Rattus norvegicus) (P30543 whole entry, looked up): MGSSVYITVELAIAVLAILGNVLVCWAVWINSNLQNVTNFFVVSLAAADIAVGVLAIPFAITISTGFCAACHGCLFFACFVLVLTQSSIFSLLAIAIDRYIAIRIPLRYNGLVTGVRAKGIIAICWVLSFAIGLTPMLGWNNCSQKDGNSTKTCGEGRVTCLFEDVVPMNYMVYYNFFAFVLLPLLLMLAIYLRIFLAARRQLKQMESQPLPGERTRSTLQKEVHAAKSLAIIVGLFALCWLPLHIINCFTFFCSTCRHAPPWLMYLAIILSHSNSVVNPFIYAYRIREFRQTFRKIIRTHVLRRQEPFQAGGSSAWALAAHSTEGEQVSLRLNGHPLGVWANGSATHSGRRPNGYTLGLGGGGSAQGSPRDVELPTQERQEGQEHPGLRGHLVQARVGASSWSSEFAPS
For assay [14], the target named is T2, Adenosine A2 receptor. The experiment in a line: Maximal NECA stimulation of adenylate cyclase via Adenosine A2 receptor in human platelet membranes. Format: cell membranes.
For assay [15], the target named is T1, Adenosine receptor A1. Briefly: Inhibition of adenylate cyclase via A1 receptors in rat fat cell membranes. Format: functional, Membrane.
In assay [16] the target is T2, Adenosine A2 receptor. Briefly: Binding affinity against Adenosine A2 receptor from human platelet membranes using [3H]NECA.
In assay [17] the target is T1, Adenosine receptor A1. Briefly: Binding affinity against A1 adenosine receptors from rat brain membranes using [3H]CCPA.
In assay [18] the target is T2, Adenosine A2 receptor. Briefly: Agonistic activity at adenosine A2 receptor. Format: functional.
Assay [19] deals with T1, Adenosine receptor A1. The experiment in a line: Inhibition of adenylate cyclase via adenosine A1 receptors in rat fat cell membranes. Format: functional, Membrane.
Assay [20] has as its target T1, Adenosine receptor A1.
Description: Binding affinity against low affinity component of adenosine A1 receptors from rat brain membranes using [3H]-DPCPX
Assay [21] addresses T1, Adenosine receptor A1. This is another data set of the same source.
Description: Binding affinity against adenosine A1 receptors from rat brain membranes using [3H]CCPA
Assay [22] concerns the target T1, Adenosine receptor A1. This is another data set of the same source.
Description: Binding affinity against high affinity component of adenosine A1 receptors from rat brain membranes using [3H]DPCPX
In assay [23] the target is T2, Adenosine A2 receptor. Briefly: Maximal NECA stimulation of adenylate cyclase via adenosine A2 receptor in human platelet membranes. In kind it is cell membranes.
Assay [24] deals with T2, Adenosine A2 receptor.
For assay [25], the target named is T3, Adenosine A2 receptor.

`CCCCCC#Cc1nc(N)c2ncn(C3O[C@H](C(=O)NCC)[C@@H](O)[C@H]3O)c2n1` (some centres undefined) showed an IC50 at Adenosine receptor A1 [1] of 13100 nM. Also, the A2 selectivity in assay [2] stood at 34. The EC50 on Adenosine A2 receptor [3] stood at 388 nM; at Adenosine A2 receptor [5] it was 37.1 nM. Besides, the Ki at Adenosine A2 receptor [4] is 4.7 nM; at Adenosine receptor A1 [6], 171 nM; on Adenosine receptor A1 [7], 89 nM; at Adenosine receptor A1 [8] it was 2910 nM. Moreover, the Emax on Adenosine A2 receptor [9] is 100%.
As for `CCCCCCC#Cc1nc(N)c2ncn(C3O[C@H](C(=O)NCC)[C@@H](O)[C@H]3O)c2n1` (some centres undefined), the A2 selectivity in assay [2] came out at 23. Also, the EC50 on Adenosine A2 receptor [3] is on record as 585 nM; at Adenosine A2 receptor [5], 13500 nM. Besides, the Ki on Adenosine A2 receptor [10] was 14.8 nM; at Adenosine receptor A1 [6], 67 nM; on Adenosine A2 receptor [11], 159 nM; on Adenosine receptor A1 [7], 64.4 nM; at Adenosine receptor A1 [8] it was 2940 nM. This compound also gave an Emax at Adenosine A2 receptor [9] of 100%.
Take `CCCC#Cc1nc(N)c2ncn([C@@H]3O[C@H](C(=O)NCC)[C@@H](O)[C@H]3O)c2n1`: the figures for the A2 selectivity in assay [12] and in assay [2] were 2 and 44, respectively. Moreover, the IC50 came to 1620 nM at Adenosine receptor A1 [1] and 2700 nM against Adenosine receptor A1 [15]. In addition, the EC50 in assay [13] is on record as 62 nM; at Adenosine A2 receptor [14], 19.5 nM. In addition, the Ki was determined as 33 nM at Adenosine receptor A1 [6], 12.6 nM on Adenosine A2 receptor [16] and 40.8 nM on Adenosine receptor A1 [17]. The compound further showed an Emax at Adenosine A2 receptor [9] of 100%.
For the compound `CCCCC#Cc1nc(N)c2ncn([C@@H]3O[C@H](CO)[C@@H](O)[C@H]3O)c2n1`, the Emax at Adenosine A2 receptor [18] stood at 65%. The compound also yielded a 50% inhibitory concentration (IC50) against Adenosine receptor A1 [19] of 2300 nM. Also, the Ki on Adenosine receptor A1 [20] was 633 nM; at Adenosine receptor A1 [21], 15.9 nM; on Adenosine receptor A1 [22], 12.5 nM.
The compound `CCCCCC#Cc1nc(N)c2ncn([C@@H]3O[C@H](CO)[C@@H](O)[C@H]3O)c2n1` displayed an Emax on Adenosine A2 receptor [18] of 65%. Also, in assay [2], the A2 selectivity was 8. The same compound returned an IC50 at Adenosine receptor A1 [19] of 3380 nM. Also, the Ki at Adenosine receptor A1 [20] was 1220 nM; on Adenosine receptor A1 [21], 28.4 nM; at Adenosine receptor A1 [22], 32.2 nM; on Adenosine A2 receptor [24], 20.8 nM; at Adenosine A2 receptor [25], 2.8 nM. Moreover, at Adenosine A2 receptor [23], the EC50 is on record as 414 nM.
On to `CCCC#Cc1nc(N)c2ncn([C@@H]3O[C@H](CO)[C@@H](O)[C@H]3O)c2n1`, for which the Emax at Adenosine A2 receptor [18] worked out at 65%. In addition, in assay [2], the A2 selectivity was determined as 24. In addition, at Adenosine receptor A1 [19], half-maximal inhibition (IC50) was put at 3000 nM. Further, the Ki was 849 nM on Adenosine receptor A1 [20]; 21.5 nM on Adenosine receptor A1 [21]; 16 nM at Adenosine receptor A1 [22]; 7.3 nM at Adenosine A2 receptor [24]; 16.4 nM at Adenosine A2 receptor [25]. The compound also gave an EC50 on Adenosine A2 receptor [23] of 127 nM.
Consider `CCCCCCC#Cc1nc(N)c2ncn([C@@H]3O[C@H](CO)[C@@H](O)[C@H]3O)c2n1`, for which, at Adenosine A2 receptor [18], the Emax was 65%. The A2 selectivity in [2] was 4. The same compound yielded an IC50 at Adenosine receptor A1 [19] of 2910 nM. Moreover, the Ki is 823 nM on Adenosine receptor A1 [20]; 25.2 nM on Adenosine receptor A1 [21]; 19.6 nM on Adenosine receptor A1 [22]; 39.9 nM on Adenosine A2 receptor [24]; 6.3 nM at Adenosine A2 receptor [25]. In addition, on Adenosine A2 receptor [23], the EC50 turned out to be 681 nM.
`CCCCC#Cc1nc(N)c2ncn([C@@H]3O[C@H](C(=O)NCC)[C@@H](O)[C@H]3O)c2n1` registered an Emax at Adenosine A2 receptor [18] of 100%. In addition, the A2 selectivity in assay [2] worked out at 42. At Adenosine receptor A1 [19], this compound returned an IC50 of 4380 nM. In addition, the Ki at Adenosine receptor A1 [20] was determined as 3160 nM; at Adenosine receptor A1 [21] it was 43.9 nM; on Adenosine receptor A1 [22], 136 nM; at Adenosine A2 receptor [24], 5.7 nM; on Adenosine A2 receptor [25] it was 3.8 nM. This compound also came in with an EC50 on Adenosine A2 receptor [23] of 105 nM.
